{"source": "patent US20230355622A1", "about": "“METHODS OF CHEMOVACCINATION AGAINST PLASMODIUM INFECTIONS” (Merck Sharp & Dohme LLC, priority 2020, published 2023)", "key": {"[1]": {"system": "PbmCherryLuci", "test": "Prime/boost immunisation of C57BL/6 mice with CD8 depletion before mosquito bite challenge (FIG. 4)", "format": "in vivo, Plasmodium berghei", "details": "C57BL/6, prime/boost with 2 x 100 mg/kg P.O., 10 mosquito bites ten weeks after boost", "protocol": "In addition to these protective antibody responses, the contribution of CD8 T-cells to the mechanism of immune protection was tested. Female C57BL/6 mice were immunized using a prime/boost immunisation regimen. The first immunisation was with 40,000 PbmCherryLuci salivary gland sporozoites i.v. followed by two doses of Example 1A at 100 mg/kg P.O. (given at 36 and 48 hours post infection). The second immunisation (boost) was eight weeks later, this time with 20,000 PbmCherryLuci sporozoites but with Example IA treatment as for the prime immunisation. Ten weeks after the boost immunisation (eighteen weeks after the prime immunisation) the mice were injected with 150 μg of a CD8 depleting antibody, or an isotype control non-depleting antibody the day before the mice were challenged with the bites of 10 PbmCherryLuci infected mosquitoes for 15 minutes. Giemsa stained thin blood smears were analysed until 30 days after challenge for the presence of parasites in the blood and mice were considered to be protected from infection if no blood parasites were observed within the 30 days post […]."}, "[2]": {"system": "PbmCherryLuci sporozoites", "test": "Immunity after chemovaccination with increasing numbers of sporozoites, BALB/c mice (FIG. 5-7)", "format": "in vivo, Plasmodium berghei", "protocol": "To investigate how many sporozoites are required to develop immunity, female BALB/c mice (n=3/group) were infected intravenously (i.v.) with increasing numbers of PbmCherryLuci sporozoites and cured with 2×100 mg/kg doses of Example 1A. Three months later, the chemovaccinated mice were challenged with 10 PbmCherryLuci infected mosquito bites. […] Twelve months later, the chemovaccinated mice were challenged with 10 PbmCherryLuci infected mosquito bites."}}}
{"compound": "CCC1(CC)CC(=O)N(C2CCOc3ccc(C(=O)N[C@H]4CC(C)(C)Oc5ccccc54)cc32)C(=N)N1", "note": "(stereo partly drawn) [Example 1A, 4-(4,4-diethyl-2-imino-6-oxotetrahydropyrimidin-1(2H)-yl)-N—((S)-2,2-dimethylchroman-4-yl)chroman-6-carboxamide]", "values": [{"measurement": "blood parasites after challenge", "setting": "[1]; 150 μg CD8 depleting antibody", "value": "all had blood parasites 4 days after challenge"}, {"measurement": "blood parasites after challenge", "setting": "[1]; isotype control non-depleting antibody", "value": "negative for blood parasites throughout the 30-day observation period"}, {"measurement": "mice with sterile protection from blood stage malaria infection", "setting": "[2]; BALB/c n=3/group, immunized with 500 sporozoites i.v., 2x100 mg/kg, 3-month challenge, 10 mosquito bites", "value": "1/3"}, {"measurement": "sterile protection from blood stage malaria infection", "setting": "[2]; challenge at 12 months (FIG. 7)", "value": "all mice showed sterile protection"}, {"measurement": "mice that developed malaria symptoms but showed partial immunity", "setting": "[2]; immunized with 500 sporozoites i.v., 2x100 mg/kg, 3-month challenge", "value": "2/3"}, {"measurement": "sterile protection from blood stage malaria infection", "setting": "[2]; immunized with 1,000 sporozoites i.v., 2x100 mg/kg, 3-month challenge", "value": "showed sterile protection from blood stage malaria infection"}, {"measurement": "sterile protection from blood stage malaria infection", "setting": "[2]; immunized with 40,000 sporozoites i.v., 2x100 mg/kg, 3-month challenge", "value": "showed sterile protection from blood stage malaria infection"}, {"measurement": "immunity on re-challenge", "setting": "[2]; mice immune at 3 months, re-challenged at 6 and 12 months post initial immunization", "value": "completely immune"}]}
